Read-outs that look alike come from different tables or passages of the source.
Experiments:
[1] = tested on: 100 A. baumannii strains (50 MDR, 50 non-MDR); assay: MIC broth microdilution at IHMA Europe, panel of 100 strains; assay type: cell-based; conditions: for MIC / MIC50 / MIC90: Acinetobacter baumannii
[2] = tested on: 3 sensitive and 7 MDR A. baumannii clinical isolates; assay: MIC, Hungarian clinical isolates and controls (384-well); assay type: cell-based; conditions: n=10; MIC 0.0625 µg/mL
E. coli ATCC 25922 = assay: IHMA QC MIC; assay type: cell-based
E. faecalis ATCC 29212 [3] = assay: IHMA QC MIC; assay type: cell-based
From the text: (§1) Supplement jm2c01905_si_004.xlsx, sheet "QC" | column: MIC [µg/mL]

H. influenzae ATCC 49247 = assay: IHMA QC MIC; assay type: cell-based; conditions: Haemophilus influenzae
From the text: as §1

H. influenzae ATCC 49766 = assay: IHMA QC MIC; assay type: cell-based
From the text: as §1

S. pneumoniae ATCC 49619 = assay: IHMA QC MIC; assay type: cell-based
From the text: as §1

E. faecalis ATCC 29212 [4] = tested on: E. faecalis ATCC 29212; set-up: method as in earlier work; conditions: QC range for E. faecalis ATCC 29212, ref CLSI; cited from earlier work

Compound: C[C@H]1COc2c(N3CCN(C)CC3)c(F)cc3c(=O)c(C(=O)O)cn1c23.C[C@H]1COc2c(N3CCN(C)CC3)c(F)cc3c(=O)c(C(=O)O)cn1c23.O [Levofloxacin, levofloxacin]
- MIC ([1]; A. baumannii IHMA 2181370, Morocco 2020, MDR): 8 µg/mL
- MIC ([1]; A. baumannii IHMA 2183729, Argentina 2020, MDR): 8 µg/mL
- MIC ([1]; A. baumannii IHMA 2183849, Argentina 2020, Non-MDR): ≤ 0.25 µg/mL
- MIC ([1]; A. baumannii IHMA 2184382, Japan 2020, Non-MDR): ≤ 0.25 µg/mL
- MIC ([1]; A. baumannii IHMA 2193375, Venezuela 2020, MDR): 8 µg/mL
- MIC ([1]; A. baumannii IHMA 2193485, Venezuela 2020, Non-MDR): ≤ 0.25 µg/mL
- MIC ([1]; A. baumannii IHMA 2193607, Venezuela 2020, MDR): 8 µg/mL
- MIC ([1]; A. baumannii IHMA 2195460, Italy 2020, MDR): 16 µg/mL
- MIC ([1]; A. baumannii IHMA 2196914, South Africa 2020, MDR): 16 µg/mL
- MIC ([1]; A. baumannii IHMA 2196959, South Africa 2020, MDR): 4 µg/mL
- MIC ([1]; A. baumannii IHMA 2203763, Spain 2020, MDR): > 16 µg/mL
- MIC ([1]; A. baumannii IHMA 2205144, Korea, South 2020, MDR): 16 µg/mL
- MIC ([1]; A. baumannii IHMA 2206459, Taiwan 2020, MDR): 16 µg/mL
- MIC ([1]; A. baumannii IHMA 2206507, Taiwan 2020, Non-MDR): ≤ 0.25 µg/mL
- MIC ([1]; A. baumannii IHMA 2212575, Hungary 2020, Non-MDR): ≤ 0.25 µg/mL
- MIC ([1]; A. baumannii IHMA 2215307, Hong Kong 2020, Non-MDR): ≤ 0.25 µg/mL
- MIC ([1]; A. baumannii IHMA 2216586, Taiwan 2020, MDR): 8 µg/mL
- MIC ([1]; A. baumannii IHMA 2223200, Colombia 2020, Non-MDR): ≤ 0.25 µg/mL
- MIC ([1]; A. baumannii IHMA 2224017, Panama 2020, MDR): 8 µg/mL
- MIC ([1]; A. baumannii IHMA 2224303, Panama 2020, Non-MDR): ≤ 0.25 µg/mL
- MIC ([1]; A. baumannii IHMA 2231797, Greece 2020, MDR): 8 µg/mL
- MIC ([1]; A. baumannii IHMA 2233099, Guatemala 2020, MDR): 8 µg/mL
- MIC ([1]; A. baumannii IHMA 2233430, Kazakhstan 2020, MDR): > 16 µg/mL
- MIC ([1]; A. baumannii IHMA 2233548, Kazakhstan 2020, Non-MDR): ≤ 0.25 µg/mL
- MIC ([1]; A. baumannii IHMA 2238964, Thailand 2020, MDR): 4 µg/mL
- MIC ([1]; A. baumannii IHMA 2239052, Thailand 2020, Non-MDR): ≤ 0.25 µg/mL
- MIC ([1]; A. baumannii IHMA 2261047, Belgium 2020, MDR): 8 µg/mL
- MIC ([1]; A. baumannii IHMA 2261633, Canada 2020, Non-MDR): ≤ 0.25 µg/mL
- MIC ([1]; A. baumannii IHMA 2274234, South Africa 2020, MDR): 8 µg/mL
- MIC ([1]; A. baumannii IHMA 2274364, South Africa 2020, MDR): 16 µg/mL
- MIC ([1]; A. baumannii IHMA 2275237, Chile 2020, Non-MDR): ≤ 0.25 µg/mL
- MIC ([1]; A. baumannii IHMA 2275751, Jordan 2020, MDR): 8 µg/mL
- MIC ([1]; A. baumannii IHMA 2316205, United States 2020, MDR): 16 µg/mL
- MIC50 ([1]; MDR n = 50): 8 µg/mL
- MIC90 ([1]; MDR n = 50): 16 µg/mL
- MIC50 ([1]; all isolates n = 100): 0.5 µg/mL
- MIC90 ([1]; all isolates n = 100): 16 µg/mL
- MIC50 ([1]; non-MDR n = 50): ≤ 0.25 µg/mL
- MIC90 ([1]; non-MDR n = 50): ≤ 0.25 µg/mL
- MIC ([1]; read-out: MAX (maximum MIC), non-MDR n = 50): 0.5 µg/mL
- MIC ([1]; read-out: MAX (maximum MIC; all strains inhibited), MDR n = 50): > 16 µg/mL
- MIC ([1]; read-out: MAX (maximum MIC; all strains inhibited), all isolates n = 100): > 16 µg/mL
- MIC ([1]; read-out: MIN (minimum MIC), MDR n = 50): 4 µg/mL
- MIC ([1]; read-out: MIN (minimum MIC), all isolates n = 100): ≤ 0.25 µg/mL
- MIC ([1]; read-out: MIN (minimum MIC), non-MDR n = 50): ≤ 0.25 µg/mL
- Percentage I ([1]; MDR n = 50): 12%
- Percentage R ([1]; MDR n = 50): 88%
- Percentage S ([1]; MDR n = 50): 0%
- Percentage I ([1]; all n = 100, CLSI breakpoints): 6%
- Percentage R ([1]; all n = 100, CLSI breakpoints): 44%
- Percentage S ([1]; all n = 100, CLSI breakpoints): 50%
- Percentage I ([1]; non-MDR n = 50): 0%
- Percentage R ([1]; non-MDR n = 50): 0%
- Percentage S ([1]; non-MDR n = 50): 100%
- Cumulative % at MIC [2]: 30%
- MIC (E. coli ATCC 25922; Escherichia coli, ATCC25922): 0.015 µg/mL
- MIC (E. coli ATCC 25922; Escherichia coli, ATCC25922, read-out: MIC (QC, repeated tests)): ≤ 0.25 µg/mL
- MIC (E. coli ATCC 25922; QC strain E. coli ATCC 25922, test date 2021-11-26): 0.015 µg/mL
- MIC (E. faecalis ATCC 29212 [3]; Enterococcus faecalis, ATCC29212): 1 µg/mL
- MIC (E. faecalis ATCC 29212 [3]; QC strain E. faecalis ATCC 29212, test date 2021-11-26): 1 µg/mL
- MIC (H. influenzae ATCC 49247; ATCC49247, QC strain H. influenzae ATCC 49247, test date 2021-11-11): 0.015 µg/mL
- MIC (H. influenzae ATCC 49247; ATCC49247, QC strain H. influenzae ATCC 49247, test date 2021-11-26): 0.015 µg/mL
- MIC (H. influenzae ATCC 49766; Haemophilus influenzae, ATCC49766): 0.015 µg/mL
- MIC (H. influenzae ATCC 49766; QC strain H. influenzae ATCC 49766, test date 2021-11-26): 0.015 µg/mL
- MIC (S. pneumoniae ATCC 49619; QC strain S. pneumoniae ATCC 49619, test date 2021-11-26): 0.5 µg/mL
- MIC (S. pneumoniae ATCC 49619; Streptococcus pneumoniae, ATCC49619): 0.5 µg/mL
- MIC, CLSI Range (E. faecalis ATCC 29212 [4]): 0,25 - 2 µg/mL
